From paper PMC8286840, “Identifying SARS-CoV-2 antiviral compounds by screening for small molecule inhibitors of Nsp3 papain-like protease” (Biochemical Journal, 2021)
Structures can show the parent of a compound that is named as a salt. Where two headings read alike, the source gives them in different places.

What was measured:
[1] = biological target: T1, SARS-CoV-2 PLpro (nsp3 1564–1878) (Severe acute respiratory syndrome coronavirus 2, UniProt P0DTD1); test: biochemical; parameters: FRET-quenched peptide (Pro3) cleavage by PLpro, 10 min pre-incubation, slope over 20 min, normalised to no-compound control; details: high concentration screen, read-out: % of control remaining
[2] = biological target: T1, SARS-CoV-2 PLpro (nsp3 1564–1878); test: biochemical; parameters: FRET-quenched peptide (Pro3) cleavage by PLpro, 10 min pre-incubation, slope over 20 min, normalised to no-compound control; details: low concentration screen, read-out: % of control remaining

Structure (SMILES): CCCCCCCC/C=C\C/C=C\C/C=C\CCCC(=O)O [5(Z), 8(Z), 11(Z)-Eicosatrienoic Acid]
- remaining activity at 3.75 µM ([1]; Well no.=4303): 103%
- remaining activity at 3.75 µM ([1]; Well no.=4594): 100%
- remaining activity at 1.25 µM ([2]; Well no.=4303): 104%
- remaining activity at 1.25 µM ([2]; Well no.=4594): 98.9%

Structure (SMILES): CCCCCCCC/C=C\CCCCCCCC(=O)NCC(=O)O [N-Oleoylglycine]
- remaining activity at 3.75 µM ([1]; Well no.=5803): 106%
- remaining activity at 1.25 µM ([2]; Well no.=5803): 104%

Structure (SMILES): NC[C@H]1O[C@H](O[C@H]2[C@H](O)[C@@H](O[C@H]3O[C@H](CO)[C@@H](O)[C@H](N)[C@H]3O)[C@H](N)C[C@@H]2N)[C@H](N)C[C@@H]1O [Tobramycin (free base)]
- remaining activity at 3.75 µM ([1]; Well no.=1960): 95.9%
- remaining activity at 1.25 µM ([2]; Well no.=1960): 96.2%

Structure (SMILES): O=C(O)CCNC(=O)c1ccc(/N=N/c2ccc(O)c(C(=O)O)c2)cc1 [Balsalazide]
- remaining activity at 3.75 µM ([1]; Well no.=7362): 92.1%
- remaining activity at 1.25 µM ([2]; Well no.=7362): 96.6%

Structure (SMILES): O=C(O)CCCCCC(=O)O [Pimelic acid]
- remaining activity at 3.75 µM ([1]; Well no.=7115): 99.2%
- remaining activity at 1.25 µM ([2]; Well no.=7115): 96.9%

Structure (SMILES): N#C/C(=C\c1ccc(O)c(O)c1)C(=O)NCc1ccccc1 [Tyrphostin AG 490]
- remaining activity at 3.75 µM ([1]; Well no.=1381): 102%
- remaining activity at 1.25 µM ([2]; Well no.=1381): 101%

Structure (SMILES): CN(C)CCOC(C)(c1ccccc1)c1ccccn1 (stereo not shown) [Doxylamine (succinate)]
- remaining activity at 3.75 µM ([1]; Well no.=6421): 102%
- remaining activity at 1.25 µM ([2]; Well no.=6421): 99.2%

Structure (SMILES): CN(C)C(=O)N[C@H]1CC[C@H](CCN2CCN(c3cccc(Cl)c3Cl)CC2)CC1 [Cariprazine (hydrochloride)]
- remaining activity at 3.75 µM ([1]; Well no.=6661): 103%
- remaining activity at 1.25 µM ([2]; Well no.=6661): 108%

Structure (SMILES): COc1ccc(-c2cc(=S)ss2)cc1 [Anethole trithione]
- remaining activity at 3.75 µM ([1]; Well no.=4132): 96.6%
- remaining activity at 1.25 µM ([2]; Well no.=4132): 93.9%

Structure (SMILES): CN/C(=N\c1ccc(C2=NNC(=O)CC2C)cc1)NC#N (stereo not shown) [Siguazodan]
- remaining activity at 3.75 µM ([1]; Well no.=2154): 94.5%
- remaining activity at 1.25 µM ([2]; Well no.=2154): 91.7%

Structure (SMILES): N=C(N)c1ccc2nc(-c3cc(CC(=O)N[C@@H](CC(=O)O)C(=O)O)cc(-c4cc(S(N)(=O)=O)ccc4O)c3O)[nH]c2c1 [PCI-27483]
- remaining activity at 3.75 µM ([1]; Well no.=8564): 102%
- remaining activity at 1.25 µM ([2]; Well no.=8564): 104%

Structure (SMILES): COc1c(O[C@@H]2O[C@H](CO)[C@@H](O)[C@H](O)[C@H]2O)cc2oc(-c3ccc(O)cc3)cc(=O)c2c1O [Homoplantaginin]
- remaining activity at 3.75 µM ([1]; Well no.=6446): 95.8%
- remaining activity at 1.25 µM ([2]; Well no.=6446): 94.1%

Structure (SMILES): Cc1nn(C)c2nc(NNC(=O)Nc3cc(Cl)nc(Cl)c3)cc(C(C)C)c12 [N-(2,6-dichloro-4-pyridinyl)-2-(4-isopropyl-1,3-dimethyl-1H-pyrazolo[3,4-b]pyridin-6-yl)hydrazinecarboxamide]
- remaining activity at 3.75 µM ([1]; Well no.=5923): 100%
- remaining activity at 1.25 µM ([2]; Well no.=5923): 104%

Structure (SMILES): CC[C@H]1OC(=O)C[C@@H](O)[C@H](C)[C@@H](O[C@@H]2O[C@H](C)[C@@H](O[C@H]3C[C@@](C)(O)[C@@H](O)[C@H](C)O3)[C@H](N(C)C)[C@H]2O)[C@@H](CC=O)C[C@@H](C)C(=O)/C=C/C(C)=C/[C@@H]1CO[C@@H]1O[C@H](C)[C@@H](O)[C@@H](OC)[C@H]1OC [Tylosin]
- remaining activity at 3.75 µM ([1]; Well no.=2010): 97.8%
- remaining activity at 1.25 µM ([2]; Well no.=2010): 96.7%

Structure (SMILES): COc1nccc(-c2c(-c3ccc(F)cc3)ncn2[C@H]2CC[C@H](O)CC2)n1 [SB 239063]
- remaining activity at 3.75 µM ([1]; Well no.=2667): 98%
- remaining activity at 1.25 µM ([2]; Well no.=2667): 93%

Structure (SMILES): CCn1cc(C(=O)O)c(=O)c2cc(F)c(N3CCNCC3)cc21 [Norfloxacin]
- remaining activity at 3.75 µM ([1]; Well no.=2043): 105%
- remaining activity at 1.25 µM ([2]; Well no.=2043): 109%

Structure (SMILES): NC(=O)c1ccc(-c2nc(-c3ccccn3)c(-c3ccc4c(c3)OCO4)[nH]2)cc1 [SB 431542 - 4-[4-(1,3-benzodioxol-5-yl)-5-(2-pyridinyl)-1H-imidazol-2-yl]benzamide]
- remaining activity at 3.75 µM ([1]; Well no.=2440): 107%
- remaining activity at 1.25 µM ([2]; Well no.=2440): 106%

Structure (SMILES): N[C@H](C(=O)O)c1cc(O)no1 (racemic)
- remaining activity at 3.75 µM ([1]; Well no.=819): 98.7%
- remaining activity at 1.25 µM ([2]; Well no.=819): 98.4%

Structure (SMILES): CC1(C)CCC(C)(C)c2cc(NC(=O)c3ccc(C(=O)O)cc3)ccc21 [Tamibarotene]
- remaining activity at 3.75 µM ([1]; Well no.=8108): 101%
- remaining activity at 1.25 µM ([2]; Well no.=8108): 97.6%

Structure (SMILES): O=C(O)P(=O)(O)O [Foscarnet Sodium]
- remaining activity at 3.75 µM ([1]; Well no.=5321): 95.6%
- remaining activity at 1.25 µM ([2]; Well no.=5321): 101%

Structure (SMILES): O=c1ccn([C@@H]2O[C@H](COP(=O)(O)OP(=O)(O)O)[C@@H](O)[C@H]2O)c(=O)[nH]1 [Uridine-5'-diphosphate disodium salt]
- remaining activity at 3.75 µM ([1]; Well no.=7718): 97.7%
- remaining activity at 1.25 µM ([2]; Well no.=7718): 96.1%

Structure (SMILES): Cn1c(=O)c2[nH]c(=O)[nH]c2n(C)c1=O [1,3-Dimethyluric acid]
- remaining activity at 3.75 µM ([1]; Well no.=6819): 95.7%
- remaining activity at 1.25 µM ([2]; Well no.=6819): 99.4%

Structure (SMILES): Cc1cc(-c2ccc(/N=N/c3ccc4c(S(=O)(=O)O)cc(S(=O)(=O)O)c(N)c4c3O)c(C)c2)ccc1/N=N/c1ccc2c(S(=O)(=O)O)cc(S(=O)(=O)O)c(N)c2c1O [Evans Blue]
- remaining activity at 3.75 µM ([1]; Well no.=8652): 92.3%
- remaining activity at 1.25 µM ([2]; Well no.=8652): 99.2%

Structure (SMILES): c1ccc(CN(CC2=NCCN2)c2ccccc2)cc1 [Antazoline (hydrochloride)]
- remaining activity at 3.75 µM ([1]; Well no.=7425): 102%
- remaining activity at 1.25 µM ([2]; Well no.=7425): 112%

Structure (SMILES): CC(C)(C)NCC(O)COc1cccc2[nH]c(=O)[nH]c12 (racemic)
- remaining activity at 3.75 µM ([1]; Well no.=629): 101%
- remaining activity at 1.25 µM ([2]; Well no.=629): 101%

Structure (SMILES): Nc1nc(NC2CC2)c2ncn([C@H]3C=C[C@@H](CO)C3)c2n1 [Abacavir sulfate]
- remaining activity at 3.75 µM ([1]; Well no.=5326): 95.9%
- remaining activity at 1.25 µM ([2]; Well no.=5326): 97.2%

Structure (SMILES): CC1Cc2cc3c(cc2C(c2ccc(N)cc2)=NN1)OCO3 (stereo not shown) [GYKI 52895]
- remaining activity at 3.75 µM ([1]; Well no.=414): 95.8%
- remaining activity at 1.25 µM ([2]; Well no.=414): 95.2%

Structure (SMILES): CCCCCC#CC[C@@H](O)/C=C/C=C/C=C\[C@@H](O)CCCC(=O)O [14,15-Dehydroleukotriene B4]
- remaining activity at 3.75 µM ([1]; Well no.=4518): 94.4%
- remaining activity at 1.25 µM ([2]; Well no.=4518): 97.4%

Structure (SMILES): N#CC1(c2ccc(NC(=O)c3cccnc3NCc3ccncc3)cc2)CCCC1 [Apatinib (YN968D1)]
- remaining activity at 3.75 µM ([1]; Well no.=5156): 102%
- remaining activity at 1.25 µM ([2]; Well no.=5156): 101%

Structure (SMILES): CNCc1cc(-c2ccccc2F)n(S(=O)(=O)c2cccnc2)c1 [TAK-438]
- remaining activity at 3.75 µM ([1]; Well no.=4794): 93%
- remaining activity at 1.25 µM ([2]; Well no.=4794): 91.8%

Structure (SMILES): O=C1OC(=O)[C@H]2[C@@H]1[C@@H]1CC[C@H]2O1 [Norcantharidin]
- remaining activity at 3.75 µM ([1]; Well no.=909): 97.7%
- remaining activity at 1.25 µM ([2]; Well no.=909): 100%

Structure (SMILES): NC1=NCC2c3ccccc3Cc3ccccc3N12 (stereo not shown) [Epinastine]
- remaining activity at 3.75 µM ([1]; Well no.=6611): 94.8%
- remaining activity at 1.25 µM ([2]; Well no.=6611): 96%

Structure (SMILES): CCCCCCCCCCCCCC[C@@H](O)[C@@H](O)[C@@H](N)CO [Phytosphingosine]
- remaining activity at 3.75 µM ([1]; Well no.=3082): 103%
- remaining activity at 1.25 µM ([2]; Well no.=3082): 102%

Structure (SMILES): CC1(C)O[C@@H]2C[C@H]3[C@@H]4CCC5=CC(=O)C=C[C@]5(C)[C@@]4(F)[C@@H](O)C[C@]3(C)[C@]2(C(=O)CO)O1 [Triamcinolone (acetonide)]
- remaining activity at 3.75 µM ([1]; Well no.=6574): 108%
- remaining activity at 1.25 µM ([2]; Well no.=6574): 105%
